Results on seven molecules are retold here after ChEMBL document CHEMBL1201862, “PubChem BioAssay data set” (2004).

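Cultured in 96-well plates, cells were exposed to test compound for 48 hours across five concentrations. GI50: concentration for 50% inhibition of growth.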 Calls of active or inactive are those of the source. No stated cut-off is given here; in the data, active = GI50 up to about 1.1 µM and inactive = higher.

Holding throughout (experiment): DTP human tumour cell line panel, 48 h
The test system of assay [1] is HL-60.
The test system of assay [2] is HT-29.
Assay [3] has as its system UACC-62.
The test system of assay [4] is BT-549.
The test system of assay [5] is MCF7.
Assay [6] concerns SNB-19.
The subject of assay [7] is COLO 205.
The subject of assay [8] is OVCAR-4.
The test system of assay [9] is NCI-H23.
Assay [10] concerns SK-MEL-5.
Assay [11] concerns SK-MEL-2.
Assay [12] concerns RPMI-8226.
The subject of assay [13] is U-251.
For assay [14], the system named is OVCAR-5.
Assay [15] relates to HCT-15.
Assay [16] relates to NCI-H522.
Assay [17] deals with MDA-N.
Assay [18] deals with PC-3.
Assay [19] concerns CCRF-CEM.
Assay [20] relates to MOLT-4.

As to `Cc1ccc(C)c(NC(=O)NCc2ccc(Cl)cc2)c1`, the GI50 in assay [1] was > 100 µM (inactive); in [2], > 100 µM (inactive); in [3] it was > 100 µM (inactive); in assay [4] it was > 100 µM (inactive); in assay [5], 50.2 µM (inactive); in assay [6], > 23.3 µM (inactive). Besides, the GI50 in [7] is > 100 µM (inactive); in [8] it was 20.1 µM (inactive); in [9] it was 35.7 µM (inactive); in assay [10], > 70.5 µM (inactive); in assay [11] it was > 63 µM (inactive); in assay [12], 37.2 µM (inactive). Moreover, the GI50 in assay [13] was 17.7 µM (inactive); in assay [14], 56.1 µM (inactive); in assay [15], above 100 µM; in [16], 24.9 µM (inactive); in assay [17], > 100 µM (inactive); in assay [18], > 100 µM (inactive). Besides, the GI50 in assay [19] was 8.51 µM (inactive).
For `COc1cc(/C=C\c2nnc(/C=C\c3ccc(O)c(OC)c3)s2)ccc1O`, the GI50 was 1.64 µM (inactive) in assay [1]; 7.31 µM (inactive) in assay [2]; 2.48 µM (inactive) in [3]; 1.89 µM (inactive) in assay [4]; 0.69 µM (active) in assay [5]; 4.58 µM (inactive) in assay [6]. Besides, the GI50 in assay [7] is 13.8 µM (inactive); in assay [8], 2.61 µM (inactive); in assay [9], 2.45 µM (inactive); in [10], 1.16 µM (inactive); in assay [11], 3.61 µM (inactive); in assay [12], 1.98 µM (inactive). The GI50 in assay [13] is 3.06 µM (inactive); in assay [14], 22.2 µM (inactive); in assay [15] it was 1.49 µM; in assay [16], 1.67 µM (inactive); in [17] it was 0.689 µM (active); in assay [18] it was 3.94 µM (inactive). Moreover, the GI50 in assay [19] is 2.18 µM (inactive); in assay [20] it was 1.74 µM (inactive).
Turning to `Cc1ccc([N+](=O)[O-])c2c(NCCNC(=O)c3cc(C(=O)NCCNc4ccnc5c(C)ccc([N+](=O)[O-])c45)n(C)n3)ccnc12`, the GI50 was 53.6 µM (inactive) in assay [1]; > 77.8 µM (inactive) in assay [2]; > 47.4 µM (inactive) in assay [3]; > 100 µM (inactive) in assay [4]; > 21.5 µM (inactive) in [5]; > 100 µM (inactive) in [6]. The GI50 in assay [7] was > 100 µM (inactive); in [8], > 49.1 µM (inactive); in assay [9] it was > 84.9 µM (inactive); in assay [10] it was 32.1 µM (inactive); in [11], > 100 µM (inactive); in [12], 41.2 µM (inactive). The GI50 in assay [13] was > 89.5 µM (inactive); in assay [14], > 84.9 µM (inactive); in [15], above 76.9 µM; in [16], > 67.3 µM (inactive); in assay [17], > 43.7 µM (inactive); in [18], > 100 µM (inactive). Besides, the GI50 is 36 µM (inactive) in [19] and 31.7 µM (inactive) in assay [20].
`CCN(CC)c1ccc2cc(C(=O)NCc3ccccc3)c(=N)oc2c1`: the GI50 in [1] was 39.1 µM (inactive); in [2], 9.02 µM (inactive); in [3] it was 14.3 µM (inactive); in [4], 23.5 µM (inactive); in assay [5] it was 36.4 µM (inactive); in assay [6], 54.3 µM (inactive). The GI50 in [7] is 16 µM (inactive); in assay [8], 16.9 µM (inactive); in [9], 31.1 µM (inactive); in assay [10], 27.6 µM (inactive); in [11] it was 21.4 µM (inactive); in assay [12], 6.95 µM (inactive). Further, the GI50 is 27.7 µM (inactive) in assay [13]; > 100 µM (inactive) in assay [14]; 9.27 µM in [15]; 9.59 µM (inactive) in assay [16]; 70.5 µM (inactive) in [17]; 19.3 µM (inactive) in [18]. The GI50 in [19] was 13.3 µM (inactive); in assay [20], 24.9 µM (inactive).
Consider `CN(C)c1ncnc2c1ncn2C1C=CC(COS(N)(=O)=O)C1` (stereo not drawn), for which the GI50 in assay [1], in assay [2], in assay [3], in assay [4], in [5] and in assay [6] was > 100 µM (inactive) throughout. Besides, the GI50 was > 100 µM (inactive) in assay [7]; > 100 µM (inactive) in assay [8]; 80.9 µM (inactive) in assay [9]; > 100 µM (inactive) in assay [10]; > 100 µM (inactive) in [11]; > 100 µM (inactive) in [12]. The GI50 in assay [13] was > 100 µM (inactive); in assay [15], above 100 µM; in assay [16], 47.2 µM (inactive); in assay [17], > 100 µM (inactive); in assay [18] it was 60.7 µM (inactive); in assay [19] it was > 100 µM (inactive). For the same molecule, the GI50 in assay [20] was > 100 µM (inactive).
In the case of `O=c1[nH]nc(Cc2ccccc2)n1/N=C/c1ccc([N+](=O)[O-])o1`, the GI50 in assay [1] was 2.95 µM (inactive); in [2] it was 1.68 µM (inactive); in [3], 1.75 µM (inactive); in assay [4], 0.308 µM (active); in assay [5] it was 1.86 µM (inactive); in [6], 4.83 µM (inactive). Moreover, the GI50 was 1.89 µM (inactive) in [7]; 4.92 µM (inactive) in assay [8]; 3.57 µM (inactive) in assay [9]; 1.83 µM (inactive) in assay [10]; 3.56 µM (inactive) in [11]; 2.63 µM (inactive) in [12]. Also, the GI50 is 2.87 µM (inactive) in [13]; 6.68 µM (inactive) in [14]; 2.08 µM in assay [15]; 1.39 µM (inactive) in assay [16]; 1.69 µM (inactive) in [17]; 3.15 µM (inactive) in [18]. Further, the values for the GI50 in [19] and in assay [20] were 1.16 µM (inactive) and 2.42 µM (inactive), respectively.
Take `COc1ccc(/C=C/C(=O)c2ccc(OC(=O)/C=C/c3ccccc3)cc2)cc1`: the GI50 in assay [1] is 4.08 µM (inactive); in assay [2], 18.5 µM (inactive); in [3], 22.7 µM (inactive); in [4] it was 14.9 µM (inactive); in assay [5] it was 23.6 µM (inactive); in assay [6], 21.8 µM (inactive). In addition, the GI50 was 32.2 µM (inactive) in [7]; 24.4 µM (inactive) in [8]; 21 µM (inactive) in assay [9]; 26 µM (inactive) in [10]; 45.1 µM (inactive) in [11]; 3.7 µM (inactive) in assay [12]. In addition, the GI50 in assay [13] is 19 µM (inactive); in assay [14], > 85.7 µM (inactive); in assay [15], 15.7 µM; in [16], 19.3 µM (inactive); in [17] it was 14.5 µM (inactive); in assay [18], 25.7 µM (inactive). Further, the results for the GI50 in assay [19] and in [20] were 5.21 µM (inactive) and 16.6 µM (inactive), respectively.

One may read the GI50 as the concentration giving 50% growth inhibition.
